In patent US20240391902A1, “Crystalline Form of Compound” (Shenzhen Forward Pharmaceuticals Co., Limited, priority 2020, published 2024):

Tests used:
[1] = tested on: EGFR activating mutation (exon 19 deletion activating mutation, L858R activating mutation, T790M drug resistance mutation and exon 20 insertion mutation); settings: disclosed in CN105461695B; cited from earlier work
[2] = Dynamic solubility test; type: physicochemical; settings: room temperature, feeding concentration 10 mg/mL, listed as compound of formula (I)
Experimental: Determination method: According to a feeding concentration of 10 mg/mL, about 50 mg of the sample were weighed and added to 5 mL of the corresponding medium, and the sample was dissolved by rotating at […] at room temperature.

In the case of `C=CC(=O)Nc1cc(Nc2ncnc(-c3cn(C)c4ccccc34)n2)c(OC)cc1N(C)CCN(C)C` [Example 21], the “inhibitory activity against EGFR activating mutation compared with wild-type EGFR (WT EGFR)” value [1] is listed as “significantly higher”, the dynamic solubility ([2]; SGF, 0.5 h) is listed as under 1000 µg/mL and the dynamic solubility ([2]; SGF, 1 h) is listed as under 1000 µg/mL. For the same molecule, the dynamic solubility ([2]; SGF, 2 h) was under 1000 µg/mL, the dynamic solubility ([2]; SGF, 4 h) was under 1000 µg/mL and the dynamic solubility ([2]; SGF, 24 h) was under 1000 µg/mL. The dynamic solubility ([2]; water, 0.5 h) was under 1000 µg/mL, the dynamic solubility ([2]; water, 1 h) was under 1000 µg/mL and the dynamic solubility ([2]; water, 2 h) was under 1000 µg/mL. It also gave a dynamic solubility ([2]; water, 4 h) of under 1000 µg/mL and a dynamic solubility ([2]; water, 24 h) of under 1000 µg/mL.
